Source: patent US20240182406A1, “COMPOUNDS AS SOLUBLE EPOXIDE HYDROLASE INHIBITORS” (UNIVERSITAT DE BARCELONA, priority 2021, published 2024)
pIC50: −log10 of the molar value. Marks after values point to notes of the source that are not given here.

Assays:
[1] = In vitro determination of microsomal stability; type: in vitro ADME; settings: human microsomes, 37° C., samples at 0-60 min
Experimental: The human recombinant microsomes employed were purchased from Tebu-Xenotech. […] Samples (75 μL) were taken from each well at 0, 10, 20, 40 and 60 min and transferred to a plate containing 4° C. 75 μL acetonitrile and 30 μL of 0.5% formic acid in water were added for improving the chromatographic conditions. The plate was centrifuged (46000 g, 30 min) and supernatants were taken and analyzed in a UPLC-MS/MS (Xevo-TQD, Waters) by employing a BEH C18 column and an isocratic gradient of 0.1% formic acid in water:0.1% formic acid acetonitrile (60:40). The metabolic stability of the compounds was calculated from the logarithm of the remaining compounds at each of the time points studied.

human sEH = human sEH (Homo sapiens (Human), UniProt P34913); assay: In vitro determination of sEH inhibition activity (fluorescent assay, CMNPC substrate); type: biochemical; settings: purified recombinant human sEH, CMNPC 5 μM, 30° C., mean of triplicate
Chain of human sEH (P34913 whole entry): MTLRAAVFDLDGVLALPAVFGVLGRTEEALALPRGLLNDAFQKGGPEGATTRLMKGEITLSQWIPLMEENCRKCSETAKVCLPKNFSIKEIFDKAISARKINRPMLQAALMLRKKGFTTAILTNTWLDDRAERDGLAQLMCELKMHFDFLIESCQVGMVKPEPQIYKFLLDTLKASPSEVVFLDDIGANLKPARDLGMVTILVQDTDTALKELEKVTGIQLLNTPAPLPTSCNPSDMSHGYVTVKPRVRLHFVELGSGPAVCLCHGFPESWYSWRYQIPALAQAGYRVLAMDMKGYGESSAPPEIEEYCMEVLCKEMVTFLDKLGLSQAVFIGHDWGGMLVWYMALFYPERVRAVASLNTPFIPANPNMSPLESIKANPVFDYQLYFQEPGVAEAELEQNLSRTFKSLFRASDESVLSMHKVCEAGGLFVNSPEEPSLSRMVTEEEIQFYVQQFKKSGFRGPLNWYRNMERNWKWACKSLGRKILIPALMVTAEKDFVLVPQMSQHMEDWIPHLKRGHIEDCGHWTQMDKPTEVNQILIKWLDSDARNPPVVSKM
Experimental: Cyano(6-methoxynaphthalen-2-yl)methyl 2-(3-phenyloxiran-2-yl)methylcarbonate (CMNPC); cf. Morisseau, C.; Hammock, B. D. Measurement of soluble epoxide hydrolase (sEH) activity. Curr. Protoc. Toxicol.
The fluorescent assay was used with purified recombinant human or mouse sEH proteins. The enzymes were incubated at 30° C. with the inhibitors ([I]final=0.4-100,000 nM) for 5 min in 100 mM sodium phosphate buffer (200 μL, pH 7.4) containing 0.1 mg/mL of BSA and 1% of DMSO. The substrate (CMNPC) was then added ([S]final=5 μM). […] Results were obtained by regression analysis from a linear region of the curve.

CD1 mice = assay: Seizure assay (pentylenetetrazole, PTZ test); type: in vivo, mouse; settings: 5 mg/kg by gavage 1 h prior to PTZ 85 mg/Kg s.c., monitored 30 min
Experimental: Test compounds were dissolved in 20% hydroxypropyl-beta-cyclodextrin and concentration was calculated according to the animal weigh to reach the precise dose. Animals were housed in standard care facilities with a 12 hours light-dark cycle with free access to water and food.
To investigate the ability of compounds to cross the blood-brain barrier (BBB), a standard acute test involving the administration of pro-convulsant pentylenetetrazole (PTZ) was employed [Inceoglu et al, PLoS ONE, 2013, 8(12), e80922; WO 2015/148954 A1]. In the test, PTZ was administered at 85 mg/Kg by subcutaneous route, time to onset of first clonic seizure, average of clonic seizures, tonic seizure latency and lethality were monitored for 30 min. Vehicles or compounds were administered by gavage at 5 mg/kg 1 h prior to pro-convulsant.

| Compound | Microsomal stability (% remanent) [1] | pIC50 (human sEH) | melting point | Average clonic seizure (CD1 mice) | Mean time to clonic seizure latency (CD1 mice) | Protected from tonic/total (Mortality) (CD1 mice) |
| --- | --- | --- | --- | --- | --- | --- |
| O=C(NC12CC3CC(F)(CC(C1)c1ccccc13)C2)N[C@H]1CC[C@H](Oc2ccc(C(=O)O)cc2)CC1 [Example 1, 4-[((1r,4r)-4-(3-(9-fluoro-5,6,8,9,10,11-hexahydro-7H-5,9:7,11-dimethanobenzo[9]annulen-7-yl)ureido)cyclohexyl)oxy]benzoic acid] | 77% | 9.30 | – | – | – | – |
| COc1cc2c(cc1OC)C1CC3(F)CC2CC(NC(=O)NC2CCN(C(=O)C4CCOCC4)CC2)(C1)C3 [Example 5, 1-(9-fluoro-2,3-dimethoxy-5,6,8,9,10,11-hexahydro-7H-5,9:7,11-dimethanobenzo[9]annulen-7-yl)-3-(1-(tetrahydro-2H-pyran-4-carbonyl)piperidin-4-yl)urea] | 100% | 9.22 | – | – | – | – |
| COc1cc2c(cc1OC)C1CC3(Cl)CC2CC(NC(=O)NC2CCN(C(=O)C4CCOCC4)CC2)(C1)C3 [Example 6, 1-(9-chloro-2,3-dimethoxy-5,6,8,9,10,11-hexahydro-7H-5,9:7,11-dimethanobenzo[9]annulen-7-yl)-3-(1-(tetrahydro-2H-pyran-4-carbonyl)piperidin-4-yl)urea] | 42% | 9.40 | 147 to 150 °C | – | – | – |
| O=C(NC1CCN(c2ccc(C(=O)O)cc2)CC1)NC12CC3CC(F)(CC(C1)c1ccccc13)C2 [Example 13, 4-(4-(3-(9-fluoro-5,6,8,9,10,11-hexahydro-7H-5,9:7,11-dimethanobenzo[9]annulen-7-yl)ureido)piperidin-1-yl)benzoic acid] | 100% | 9.30 | 267 to 268 °C | – | – | – |
| O=C(NC1CCN(c2ccc(C(=O)O)cc2)CC1)NC12CC3CC(Cl)(CC(C1)c1ccccc13)C2 [Example 14, 4-(4-(3-(9-chloro-5,6,8,9,10,11-hexahydro-7H-5,9:7,11-dimethanobenzo[9]annulen-7-yl)ureido)piperidin-1-yl)benzoic acid] | 99% | 9.40 | 226 to 227 °C | – | – | – |
| COC(=O)c1ccc(C(=O)N2CCC(NC(=O)NC34CC5CC(Cl)(CC(C3)c3ccccc35)C4)CC2)cc1 [Example 15, methyl 4-(4-(3-(9-chloro-5,6,8,9,10,11-hexahydro-7H-5,9:7,11-dimethanobenzo[9]annulen-7-yl)ureido)piperidine-1-carbonyl)benzoate] | – | – | 128 to 129 °C | – | – | – |
| O=C(NC1CCN(C(=O)c2ccc(C(=O)O)cc2)CC1)NC12CC3CC(Cl)(CC(C1)c1ccccc13)C2 [Example 16, 4-(4-(3-(9-chloro-5,6,8,9,10,11-hexahydro-7H-5,9:7,11-dimethanobenzo[9]annulen-7-yl)ureido)piperidine-1-carbonyl)benzoic acid] | 88% | 9.40 | 200 °C (dec.) | – | – | – |
| CC(=O)N1CCC(NC(=O)NC23CC4CC(C)(CC(C2)c2ccccc24)C3)CC1 [Example C1, 1-(1-acetylpiperidin-4-yl)-3-(9-methyl-5,6,8,9,10,11-hexahydro-7H-5,9:7,11-dimethanobenzo[9]annulen-7-yl)urea] | 1% | – | – | – | – | – |
| CC12CC3CC(NC(=O)NC4C[C@H]5CC[C@@H](C4)N5Cc4ccccc4)(CC(C1)c1ccccc13)C2 (stereo partly drawn) [Example C2, 1-((1R,3s,5S)-8-benzyl-8-azabicyclo[3.2.1]octan-3-yl)-3-(9-methyl-5,6,8,9,10,11-hexahydro-7H-5,9:7,11-dimethanobenzo[9]annulen-7-yl)urea] | 0.1% | 8.33 | – | – | – | – |
| CC12CC3CC(NC(=O)Nc4ccc(F)c(F)c4F)(CC(C1)c1ccccc13)C2 [Example C4, 1-(9-methyl-6,7,8,9,10,11-hexahydro-5H-5,9:7,11-dimethanobenzo[9]annulen-7-yl)-3-(2,3,4-trifluorophenyl)urea] | 7% | 8.96 | – | – | – | – |
| CCC(=O)N1CCC(NC(=O)Nc2ccc(OC(F)(F)F)cc2)CC1 [TPPU, N-[1-(1-Oxopropyl)-4-piperidinyl]-N′-[4-(trifluoromethoxy)phenyl]urea, reference compound] | – | – | – | 3.67 | 605.33 s | 5/6**** |

Now from value to compound, other results behind:

| Microsomal stability (% remanent) [1] | pIC50 (human sEH) | melting point | Compound | Average clonic seizure (CD1 mice) | Mean time to clonic seizure latency (CD1 mice) | Protected from tonic/total (Mortality) (CD1 mice) |
| --- | --- | --- | --- | --- | --- | --- |
| 0.1% | 8.82 | – | CC12CC3CC(NC(=O)NC4CCN(Cc5ccccc5)CC4)(CC(C1)c1ccccc13)C2 [Example C5, 1-(1-benzylpiperidin-4-yl)-3-(9-methyl-5,6,8,9,10,11-hexahydro-7H-5,9:7,11-dimethanobenzo[9]annulen-7-yl)urea] | – | – | – |
| 22% | 9.05 | – | CC(=O)N1CCC(NC(=O)NC23CC4CC(C)(CC(C2)c2cc(F)ccc24)C3)CC1 (centres unmarked) [Example C8, 1-(1-acetylpiperidin-4-yl)-3-(2-fluoro-9-methyl-5,6,8,9,10,11-hexahydro-7H-5,9:7,11-dimethanobenzo[9]annulen-7-yl)urea] | – | – | – |
| 16% | 9.05 | – | CC(=O)N1CCC(NC(=O)NC23CC4CC(C)(CC(C2)c2c(F)cccc24)C3)CC1 (centres unmarked) [Example C9, 1-(1-acetylpiperidin-4-yl)-3-(1-fluoro-9-methyl-5,6,8,9,10,11-hexahydro-7H-5,9:7,11-dimethanobenzo[9]annulen-7-yl)urea] | – | – | – |
| 33% | 8.92 | – | COc1ccc2c(c1)C1CC3(C)CC2CC(NC(=O)NC2CCN(C(C)=O)CC2)(C1)C3 (centres unmarked) [Example C10, 1-(1-acetylpiperidin-4-yl)-3-(2-methoxy-9-methyl-5,6,8,9,10,11-hexahydro-7H-5,9:7,11-dimethanobenzo[9]annulen-7-yl)urea] | – | – | – |
| 0.7% | 8.54 | – | CC(=O)c1ccc(N2CCC(NC(=O)NC34CC5CC(C)(CC(C3)c3ccccc35)C4)CC2)cc1 [Example C12, 1-(1-(4-acetylphenyl)piperidin-4-yl)-3-(9-methyl-5,6,8,9,10,11-hexahydro-7H-5,9:7,11-dimethanobenzo[9]annulen-7-yl)urea] | – | – | – |
